Consider 10 molecules from article PMC8416018, “Characterization of the ABC methionine transporter from Neisseria meningitidis reveals that lipidated MetQ is required for interaction” (eLife, 2021).

The structures appear in SMILES notation.

In one experiment the target is T1, lipo-NmMetQ:NmMetNI (methionine site) (Neisseria meningitidis, UniProt Q7DD63).
T1 construct: gene NMB1946; full-length MetQ, signal cleaved, triacylated at Cys20, C-terminal His10; MetNI with His10 on MetN; DDM-solubilized; E. coli; Methionine ABC transporter permease protein MetI
T1 sequence (Q7DD63 20-287): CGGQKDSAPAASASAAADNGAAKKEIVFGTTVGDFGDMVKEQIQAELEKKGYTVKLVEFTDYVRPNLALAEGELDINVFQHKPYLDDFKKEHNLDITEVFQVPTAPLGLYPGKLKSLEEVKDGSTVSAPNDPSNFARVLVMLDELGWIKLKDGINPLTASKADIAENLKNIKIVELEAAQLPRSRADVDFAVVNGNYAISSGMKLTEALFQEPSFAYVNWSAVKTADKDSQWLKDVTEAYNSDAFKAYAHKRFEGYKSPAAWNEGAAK
T1 sequence (Q9JXP2 1-245 partner): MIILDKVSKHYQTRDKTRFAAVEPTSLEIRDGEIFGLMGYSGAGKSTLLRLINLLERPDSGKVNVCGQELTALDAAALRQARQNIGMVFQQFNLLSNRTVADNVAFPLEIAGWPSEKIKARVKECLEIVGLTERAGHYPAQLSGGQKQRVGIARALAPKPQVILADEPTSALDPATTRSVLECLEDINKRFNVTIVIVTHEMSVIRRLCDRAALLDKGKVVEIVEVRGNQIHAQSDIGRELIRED
T1 sequence (Q9JXP3 1-228 partner): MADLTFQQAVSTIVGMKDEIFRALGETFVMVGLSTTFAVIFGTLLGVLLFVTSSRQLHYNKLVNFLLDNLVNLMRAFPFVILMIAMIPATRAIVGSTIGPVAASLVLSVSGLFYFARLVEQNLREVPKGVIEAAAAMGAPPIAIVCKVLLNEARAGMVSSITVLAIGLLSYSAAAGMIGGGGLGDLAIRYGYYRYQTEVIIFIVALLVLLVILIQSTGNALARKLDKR
Put plainly: EnzChek phosphate ATPase stimulation. The class given is biochemical. The note with it: 2 mM ATP, NmMetNI:lipo-NmMetQ:analog 1:8:50 molar ratio, 5 mM MgCl2, pH 7.5, 37 C, 0.05% DDM.
As to `CSCC[C@H](NC=O)C(=O)O` [N-formyl-L-methionine], the “EnzChek phosphate ATPase stimulation” value was “methionine analogs led to substrate-stimulated ATPase activity: N-acetyl-L-methionine, N-formyl-L-methionine”.

Another experiment addresses T2, NLM-NmMetQ (Neisseria meningitidis, UniProt Q7DD63).
T2 construct: gene NMB1946; made as in Nguyen et al. 2019; E. coli BL21(DE3) Gold
T2 sequence (Q7DD63 22-287): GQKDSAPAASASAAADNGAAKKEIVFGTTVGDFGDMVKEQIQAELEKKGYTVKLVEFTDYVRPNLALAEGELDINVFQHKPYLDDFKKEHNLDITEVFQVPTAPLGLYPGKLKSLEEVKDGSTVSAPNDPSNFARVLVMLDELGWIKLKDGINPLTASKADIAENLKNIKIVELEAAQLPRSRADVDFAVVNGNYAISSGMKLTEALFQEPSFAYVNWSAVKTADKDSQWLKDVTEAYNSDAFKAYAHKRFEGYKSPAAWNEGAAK
Kind of experiment: […] NMR FAXS competition. The class given is binding. The following applies: 43 uM protein, 43 uM analog, 2 mM trifluoromethyl methionine reporter, T2 120 ms, 300 K; competitive.
For the molecule `CSCC[C@@H](N)C(=O)O` [D-methionine], the “-ln(CPMG/1D)” value is given as “D-methionine displaced less reporter than L-methionine”.
For `CCSCC[C@H](N)C(=O)O` [L-ethionine], the “-ln(CPMG/1D)” value was “addition of a methylene group (L-ethionine) was better tolerated”.
As for `CCOC(=O)[C@@H](N)CCSC` [L-methionine ethyl ester], the “-ln(CPMG/1D)” value is reported as “L-methionine ethyl ester only partially displaced the reporter molecule”.
Still for that read-out and setting: as for `CS(=N)(=O)CC[C@H](N)C(=O)O` (stereo partly drawn) [L-methionine sulfoximine], the entry is “seleno-L-methionine, L-methionine sulfoximine, and L-norleucine were well tolerated”; as for `CSCC[C@H](N)C(=O)O` [L-methionine], “L-methionine completely displaced the reporter molecule”.
As for `CCCC[C@H](N)C(=O)O` [L-norleucine], the “-ln(CPMG/1D)” value is “seleno-L-methionine, L-methionine sulfoximine, and L-norleucine were well tolerated”.
The same measure, in the same setting: the result for `CSCC[C@H](NC(C)=O)C(=O)O` [N-acetyl-L-methionine] reads “Addition of these analogs led to the respective complete or near complete displacement”; that for `CSCC[C@H](NC=O)C(=O)O` [N-formyl-L-methionine], “Addition of these analogs led to the respective complete or near complete displacement”.
In the case of `C[Se]CC[C@H](N)C(=O)O` [seleno-L-methionine], the “-ln(CPMG/1D)” value was “seleno-L-methionine, L-methionine sulfoximine, and L-norleucine were well tolerated”.

The target in the next experiment is T2, NLM-NmMetQ. Kind of experiment: […] NMR CPMG relaxation, direct reporter binding. The following applies: 43 uM protein, 2 mM reporter, T2 120 ms, 300 K.
As to `N[C@@H](CCSC(F)(F)F)C(=O)O` [Trifluoromethyl-methionine], the “-ln(CPMG/1D)” value is listed as “reporter molecule plus NLM-NmMetQ has a high -ln(CPMG/1D) ratio”.
